A value given as a limit tells only on which side of the number the result lay.

The text below walks through data of patent US7851610B2, “Transporter protein” (Ajinomoto Co., Ltd., priority 2003, dated 2010).

Series [1] addresses T1, MHPH6 (Microbacterium maritypicum, UniProt D6R8X8).
T1 construct: expressed in transfected cells; host or cells: E. coli BLR transformed with pSHP11H (pTTQ18 derivative), IPTG-induced
T1 sequence (D6R8X8 with tags, fused parts or gaps): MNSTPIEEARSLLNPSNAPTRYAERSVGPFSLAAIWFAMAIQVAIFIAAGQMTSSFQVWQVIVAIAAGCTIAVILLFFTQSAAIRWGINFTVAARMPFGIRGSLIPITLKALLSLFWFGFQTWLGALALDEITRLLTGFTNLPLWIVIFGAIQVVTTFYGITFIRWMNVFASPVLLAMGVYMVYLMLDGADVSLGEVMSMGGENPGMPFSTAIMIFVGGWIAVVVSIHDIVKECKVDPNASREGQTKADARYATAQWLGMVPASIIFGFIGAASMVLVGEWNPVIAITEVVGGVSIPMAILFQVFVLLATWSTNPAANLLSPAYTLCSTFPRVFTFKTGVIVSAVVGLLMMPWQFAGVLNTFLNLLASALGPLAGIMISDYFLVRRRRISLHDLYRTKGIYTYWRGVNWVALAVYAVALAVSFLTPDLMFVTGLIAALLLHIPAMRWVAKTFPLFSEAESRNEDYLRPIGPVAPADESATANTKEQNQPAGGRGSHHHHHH
Briefly: Substrate screening: competitive inhibition of 3H-L-BH uptake by E. coli BLR/pSHP11H. The series is classed as cell-based, Microbacterium liquefaciens AJ3912. The following applies: for competitive inhibitory activity against L-BH uptake (in words): 250 μM cold candidate; for competitive inhibitory activity against L-BH uptake (in words) / uptake activity of 3H-L-BH (relative activity, no compound added = 100%): uptake after 3 minutes; for uptake activity of 3H-L-BH (relative activity, no compound added = 100%): 250 μM cold compound; for relative affinity for MHPH6 (affinity of L-BH = 1): curve-fitted assuming simple competitive inhibition, variety of concentrations. The method, then: 25 μM of ^3H-L-BH was employed as the RI-labeled substrate in the above-described reaction using intact cells, and a reaction liquid was prepared by adding 250 μM of a candidate substrate (cold). The uptake amount of ^3H-L-BH after 3 minutes from the addition thereof was compared with the amount without the candidate substrate, to calculate the competitive inhibitory activity of each candidate substrate against L-BH, for evaluating the potentiality of each candidate substance as the substrate for MHP.
Affinity of a variety of compounds to MHPH6 was measured based on the competitive inhibitory activity thereof against L-BH uptake by E. coli BLR/pSHP11H, to search for substrates for MHPH6 (FIG. 8). […] When the four compounds showing strong inhibitive activity were added, the uptake activities of ^3H-L-BH (the relative activity with respect to when not adding any compound as 100%) were 7% (L-BH, theoretical value 9%), 47% (D-BH), 3% (L-IMH) and 24% (D- IMH).
The competitive inhibition experiments were carried out, as for substrate screening, with a variety of substrate concentrations. As a result, the affinity of D- and L-BH and D- and L-IMH for MHPH6 was different from one another, and the intensity of the affinity was in the order of L-IMH (solid triangle), L-BH (solid circle), D-IMH (open triangle) and D-BH (open circle) from the strongest. Assuming that ^3H-L-BH and the added cold compound were under simple competitive inhibition, the experimental results were curve-fitted. As a result, the relative affinity for each compound was calculated to be 5.32 (L-IMH), 1.05 (L-BH, experimental value), 0.96 (D-IMH), and 0.20 (D-BH), with respect to the affinity of L-BH and MHPH6 being 1.

For series [2], the target named is T1, MHPH6. Put plainly: Uptake assay using intact cells of E. coli BLR/pSHP11H (RI-labelled substrate). The class given is cell-based. As to conditions: for initial uptake rate / uptake amount 5 minutes after the addition of the substrate: induced E. coli BLR/pSHP11H, 25 μM substrate; for initial uptake rate: data at 15 seconds after substrate addition; for uptake amount 5 minutes after the addition of the substrate: pH 6.6, 25° C., per dry cell weight. From the text:
The activity of the hydantoin transporter can be measured by an uptake assay using intact cells. The uptake assay using intact cells may be carried out in accordance with the method of West, and Henderson (I. C. West (1970) Lactose transport coupled to proton movements in Escherichia coli, Biochem. Biophys. Res. Commun. 41: 655-661; P. J. F. Henderson and A. J. S. Macpherson (1986), Assay, genetics, proteins, and reconstitution of proton-linked galactose, arabinose, and xylose transport systems of Escherichia coli, Methods Enzymol. 125: 387-429).
Specifically, the uptake reaction may be carried out by adding an RI-labelled substrate (^3H—BH (benzyl hydantoin), ^3H—IMH (indolylmethyl hydantoin)) to a suspension of the cells that express the hydantoin transporter. After initiating the reaction, sampling may be conducted at time intervals. Immediately after sampling, each aliquot may be collected by a filter of 0.45 μm pore size (preincubated in a washing liquid of 150 mM KCl, 5 mM MES (pH 6.6)) and washed thoroughly by the rinsing liquid. Thereafter, by measuring radioactivity remaining on the filter with a liquid scintillation counter, the substrate uptaken into the cells is quantified, and the hydantoin-transporter activity can be determined.
The methods of West (I. C. West (1970), Lactose transport coupled to proton movements in Escherichia coli. Biochem. Biophys. Res. Commun. 41: 655-661.) and Henderson (P. J. F. Henderson and A. J. S. Macpherson (1986), Assay, genetics, proteins, and reconstitution of proton-linked galactose, arabinose, and xylose transport systems of Escherichia coli, Methods Enzymol. 125: 387-429.) were employed.
The collected cells were washed three times with 150 mM KCl, 5 mM MES (2-[N-Morpholino]ethanesulphonic acid) (pH 6.6) and were then used in the assay. The basic reaction conditions included uptake initiation by adding glycerol to a final concentration of 20 mM to a cell suspension having an absorbance at about A680 of approximately 2 to 4, followed by aeration at 25° C. for 3 minutes, and then addition of an RI-labelled substrate (relative RI activity: ^3H—BH 107 Bq/nmol, ^3H—IMH 241 Bq/nmol) to a final concentration of 25 μM. After the onset of the reaction (aeration was continued), sampling was done over time. Immediately after the sampling, each aliquot was passed through a filter with a pore size of 0.45 μm (pre-incubated in a washing solution of 150 mM KCl and 5 mM MES (pH 6.6)) which was then washed sufficiently with a washing solution. The radiation remaining on the filter was measured by a liquid scintillation counter. The uptake activity was expressed in terms of the dry cell weight that was calculated by taking the absorbance A680=1 as the dry cell concentration of 0.68 mg/ml (Ashworth and Kornberg, Biological Science, 165(999):179-188 (1966)). Furthermore, the initial uptake rate was calculated based on the data obtained at 15 seconds after the addition of substrate, and expressed in terms of the uptake amount per minute.
In the measurement of the inhibitory activity of the inhibitor, the inhibitor was added at the time of onset of aeration. That is, it was pre-incubated with the cells for 3 minutes prior to the substrate addition. The inhibitor used was 2,4-dinitrophenol (DNP), and the final concentration during the reaction was 20 mM.
For varying the pH of the reaction liquid, 10 mM potassium acetate (pH 4.0), 5 mM MES (pH 4.9, 6.1, 6.6, 7.1, 7.9), 10 mM Tris-HCl (pH 8.0) and 10 mM glycin-NaOH (pH 10.0) were used when appropriate.

A short description of series [3]: CD spectroscopy heat stability of purified MHPH6. The class given is physicochemical. The method, then:
The buffer solution suspending the purified MHPH6 was replaced by 10 mM sodium phosphate (pH 7.6) with 0.05% (w/v) DDM, using an ultrafiltration apparatus (Centricon C50, Millipore). In this buffer solution, the protein concentration was adjusted to 50 μg/ml, and the CD spectroscopy was carried out at 10° C. (JASCO J-715 Spectropolarimeter). The measurement was performed at a wavelength ranging from 190 to 260 nm, and the average value of twenty measurements was taken. Furthermore, the change in the secondary structure of MHPH6 (heat stability) was observed by measuring the change of the CD unit value at a wavelength of 222 nm as the temperature of the sample was varied from 10° C.→90° C.→10° C. (the temperature change was made 10° C. at a time, and the length of time at each temperature was approximately 10 minutes).

Setting [4] is: CD at 222 nm, 10 mM sodium phosphate pH 7.6, 0.05% DDM.

For the molecule `CC(C)[C@@H]1NC(=O)NC1=O` [5-L-isopropyl hydantoin], the “competitive inhibitory activity against L-BH uptake (in words)” value (from here on “competitive inhibitory activity”) at MHPH6 [1] (25 μM 3H-L-BH) was “Weaker inhibitory activity”.
In the case of `NC(=O)NC1NC(=O)NC1=O` (centres unmarked) [allantoin, reference compound], at MHPH6 [1] (25 μM 3H-L-BH), the “competitive inhibitory activity” value is listed as “did not result in any inhibition”.
Consider `O=C1NC(=O)C(Cc2ccccc2)N1` [L-BH, 5-L-benzyl hydantoin], for which, on MHPH6 [2], the initial uptake rate came out at 0.64 nmol/mg/min and the “uptake amount 5 minutes after the addition of the substrate” value came to 0.27 nmol/mg. For the same molecule, on MHPH6 [1] (250 μM cold L-BH, 25 μM 3H-L-BH), the “uptake activity of 3H-L-BH, theoretical value” is listed as 9%. For the same molecule, on MHPH6 [1] (25 μM 3H-L-BH), the “competitive inhibitory activity” value is recorded as “strong activity of competitive inhibition” and the “uptake activity of 3H-L-BH (relative activity, no compound added = 100%)” value amounted to 7%. Further, at MHPH6 [1], the “relative affinity for MHPH6 (affinity of L-BH = 1)” value (from here on “relative affinity for MHPH6”) came out at 1.05.
Regarding `CC(C)C1NC(=O)NC1=O` (racemic) [5-DL-isopropyl hydantoin], the “competitive inhibitory activity” value on MHPH6 [1] (25 μM 3H-L-BH) is given as “Weaker inhibitory activity”.
In the case of `O=C1NC(=O)[C@H](Cc2c[nH]c3ccccc23)N1` [L-IMH, 5-L-indolylmethyl hydantoin], on MHPH6 [2], the initial uptake rate is given as 2.5 nmol/mg/min and the “uptake amount 5 minutes after the addition of the substrate” value was determined as 0.91 nmol/mg. Further, the “initial uptake rate as compared with the initial rate at pH 6.6” value on MHPH6 [2] (pH 4.0) is recorded as “approximately 10%”. Moreover, the “initial uptake rate as compared with the initial rate at pH 6.6” value on MHPH6 [2] (pH 10.0) is given as “approximately 10%”. At MHPH6 [2] (pH varied between 4.0 and 10.0, induced and uninduced samples), the “pH at which initial uptake rate is maximal” value is given as 6.6. Also, at MHPH6 [2] (ratio L-IMH / L-BH), the “initial uptake rate, L-IMH relative to L-BH” value is 3.9 times and the “uptake amount 5 minutes after addition of substrate, L-IMH relative to L-BH” value is 3.4 times. Besides, on MHPH6 [1] (25 μM 3H-L-BH), the “competitive inhibitory activity” value is “strong activity of competitive inhibition” and the “uptake activity of 3H-L-BH (relative activity, no compound added = 100%)” value came out at 3%. Besides, at MHPH6 [1] (L-IMH versus L-BH), the “affinity relative to that of L-BH (estimated)” value was “approximately 5 times”. Also, the “relative affinity for MHPH6” value on MHPH6 [1] is 5.32.
Regarding `O=C1NC(=O)[C@@H](Cc2c[nH]c3ccccc23)N1` [D-IMH], at MHPH6 [1] (25 μM 3H-L-BH), the “competitive inhibitory activity” value was “strong activity of competitive inhibition” and the “uptake activity of 3H-L-BH (relative activity, no compound added = 100%)” value worked out at 24%. Further, the “relative affinity for MHPH6” value on MHPH6 [1] is given as 0.96.
In the case of `O=C1NC(=O)C(Cc2ccc(O)cc2)N1` (racemic) [5-DL-p-hydroxybenzyl hydantoin], the “competitive inhibitory activity” value on MHPH6 [1] (25 μM 3H-L-BH) is reported as “Weaker inhibitory activity”.
On to `CC1NC(=O)NC1=O` (racemic) [5-DL-methyl hydantoin], for which the “competitive inhibitory activity” value on MHPH6 [1] (25 μM 3H-L-BH) is listed as “Weaker inhibitory activity”.
Regarding `CC(C)C[C@@H]1NC(=O)NC1=O` [5-L-isobutyl hydantoin], the “competitive inhibitory activity” value at MHPH6 [1] (25 μM 3H-L-BH) was “Weaker inhibitory activity”.
Consider `O=C1NC(=O)[C@@H](Cc2ccccc2)N1` [D-BH], for which, at MHPH6 [1] (25 μM 3H-L-BH), the “competitive inhibitory activity” value was “strong activity of competitive inhibition” and the “uptake activity of 3H-L-BH (relative activity, no compound added = 100%)” value was found to be 47%. The “relative affinity for MHPH6” value on MHPH6 [1] is reported as 0.20.
As to `O=[N+]([O-])c1ccc(O)c([N+](=O)[O-])c1` [DNP, 2,4-dinitrophenol, reference compound], at MHPH6 [2] (DNP 20 mM, pre-incubated 3 minutes, induced sample), the “effect on L-IMH uptake, induced sample” value is recorded as “decreased the amount of L-IMH uptake”. The “effect on L-IMH uptake, uninduced sample” value on MHPH6 [2] (DNP 20 mM, pre-incubated 3 minutes, uninduced sample) is “substantially no effect”.
Regarding `CC(C)CC1NC(=O)NC1=O` (racemic) [5-DL-isobutyl hydantoin], on MHPH6 [1] (25 μM 3H-L-BH), the “competitive inhibitory activity” value was “Weaker inhibitory activity”.

B1: MHPH6: MHP hydantoin transporter protein containing the RGSHis6-Tag at the C-terminal (SEQ ID No. 3/4) (protein)
chain: MNSTPIEEARSLLNPSNAPTRYAERSVGPFSLAAIWFAMAIQVAIFIAAGQMTSSFQVWQVIVAIAAGCTIAVILLFFTQSAAIRWGINFTVAARMPFGIRGSLIPITLKALLSLFWFGFQTWLGALALDEITRLLTGFTNLPLWIVIFGAIQVVTTFYGITFIRWMNVFASPVLLAMGVYMVYLMLDGADVSLGEVMSMGGENPGMPFSTAIMIFVGGWIAVVVSIHDIVKECKVDPNASREGQTKADARYATAQWLGMVPASIIFGFIGAASMVLVGEWNPVIAITEVVGGVSIPMAILFQVFVLLATWSTNPAANLLSPAYTLCSTFPRVFTFKTGVIVSAVVGLLMMPWQFAGVLNTFLNLLASALGPLAGIMISDYFLVRRRRISLHDLYRTKGIYTYWRGVNWVALAVYAVALAVSFLTPDLMFVTGLIAALLLHIPAMRWVAKTFPLFSEAESRNEDYLRPIGPVAPADESATANTKEQNQPAGGRGSHHHHHH
modifications: C-terminal RGSHis6 tag; RGSH6
As to B1, in series [3] (setting [4]), the “temperature at which higher structure began to be destroyed” value was no less than 30 °C and the “temperature at which higher structure was almost completely destroyed” value was found to be 70 °C. Moreover, in series [3] (temperature 10→90→10° C.), the “reversibility of thermal denaturation” value is reported as “irreversible”.
